{"source": "patent US7192931B2", "about": "“Treatment of demyelinating diseases” (Neuren Pharmaceuticals Ltd., priority 2000, dated 2007)", "assay_type_in_all_cases": "in vivo, mouse", "key": {"[1]": {"tested_on": "apoptotic cells in spinal cord of EAE mice", "assay": "In situ detection of apoptotic cells in the CNS by TUNEL assay", "settings": "spinal cord sections, compared to mice mock treated with PBS or rat IgG", "experimental": "Cells undergoing apoptosis were identified using the in situ TUNEL assay. Five-μm thick serial sections of brain and spinal cord were prepared to detect apoptosis by TUNEL (i.e., terminal deoxynucleotidyl transferase-mediated deoxyuridine triphosphate-digoxigenin nick end labeling) staining using the In Situ Apoptosis Detection Kit from Boehringer Mannheim (Germany). Briefly, frozen sections were fixed in 4% paraformaldehyde, permeabilized in 0.1% Triton X-100, incubated with 20 μL TUNEL reagent for 60 minutes at 37° C., and then examined by fluorescence microscopy. Adjacent sections were counterstained with hematoxylin and mounted onto poly-L-lysine coated slides to allow the total number of nucleated cells to be counted. The percentage of apoptotic cells was assessed in ten randomly selected fields viewed at 40× magnification. The apoptotic index (AI) was calculated as follows: AI=number of apoptotic (TUNEL-positive) cells×100/total number of nucleated cells."}, "[2]": {"tested_on": "C57Bl/6 mice with MOG35-55 peptide-induced EAE", "assay": "Expanded disability status scale for EAE treated mice", "settings": "for Maximal disability score: Alertness / Maximal disability score: Bladder function / Maximal disability score: Eye movements / Maximal disability score: Motor (grip)* / Maximal disability score: Other signs (shine hairs and loose skin) / Maximal disability score: Sensory* Light touch / Maximal disability score: Sensory* Pain / Maximal disability score: Spontaneous mobility / Maximal disability score: Tone* / Maximal disability score: Tremor / Maximal disability score: Vision (including pupillary reflex) / Total expanded disability scale: mean values", "experimental": "(§1) C57Bl/6 mice (8–10 week old) were injected subcutaneously in one flank with 300 μg of MOG35-55 peptide ([…]: SEQ ID NO:1) synthesized by Mimotapes Pty Ltd, Clayton, Australia and emulsified in CFA containing 500 μg of Mycobacterium tuberculosis H37Ra (DIFCO Laboratories, Detrit, USA). They also received 500 ng of pertussis toxin (List Biological Laboratories, CA, USA) in 200 μl PBS intravenously via the tail vein, followed 48 hours later by a second dose. A second injection of MOG peptide was given in the absence of pertussis toxin one week later in the opposite flank, as described previously (Kanwar et al., 2000b).\n(§2) Two treatment protocols were employed, involving the treatment of early disease, versus advanced disease. For early disease, reagents were administered at day 35 (following MOG injection). Antibody was administered thrice on alternate days, whereas neuroprotectors were given daily for 6 days, where 50% of reagent was given ip and 50% iv. In the treatment of advanced disease, therapy as above was initiated at day 60, with either three or eight anti-MAdCAM-1 mAb injections, and neuroprotectors given daily for either 7 or 18 days.\n(§3) The mice were monitored daily and scored according to the following scale: 0, no clinical signs of EAE; 1, limp tail; 2, partial hind limb paralysis; 3, complete hind limb paralysis; 4, complete hind limb and partial fore limb paralysis; 5, paralysis extending to diaphragm; 6, hind and fore limb paralysis; 7, death due to EAE. Paralysis extending to the diaphragm was denoted as difficulty in remaining upright. […] The daily mean clinical score for each group is the mean disease score of at least five mice. The body weight of animals was measured regularly throughout the experiments. The expanded disability status scale for EAE treated mice was scored using an earlier published scoring system (Villoslada et al. 2000)."}, "[3]": {"tested_on": "C57Bl/6 mice with MOG35-55 peptide-induced EAE", "assay": "Clinical scoring of MOG35-55-induced EAE", "experimental": "as §1, §2, §3\nThe rat hybridoma MECA-367 (rat IgG2a),5 which secretes a mAb against mouse MAdCAM-1 was either provided by Dr Eugene Butcher, Stanford University, Stanford, Calif. (FIGS. 1A and B), or obtained directly from the American Type Culture Collection, Rockville, Md. (FIG. 1C, and remainder of studies). Rat IgG obtained from Sigma Co., USA, served as a control. Antibodies were administered into the tail vein (70% of mAb) and intraperitoneally (30% of mAb) at 10 mg/Kg separately or in combination on alternate days at the time points indicated (FIGS. 1–4). The rat IgG control antibody was also administered at 10 mg/Kg. Backbones from sacrificed mice were frozen in isopentane at −70° C. Transverse 10 μm sections made through the spinal cord of control and diseased mice, in each case made at the same levels of the cord, were mounted on poly L-lysine-coated slides, and stained with haematoxylin and eosin."}}}
{"substance": "Gly-Pro-Glu [GPE]", "values": [{"measurement": "reductions in the numbers of apoptotic cells", "setting": "[1]", "result": "~30", "unit": "%"}, {"measurement": "total scores (disability scale)", "setting": "[2]; at day 70 as printed, 35 for rat IgG treated control mice", "result": 10}, {"measurement": "Maximal disability score: Alertness", "setting": "[2]; day 55 after immunization", "result": 2}, {"measurement": "Maximal disability score: Bladder function", "setting": "[2]; day 55 after immunization", "result": 0}, {"measurement": "Maximal disability score: Eye movements", "setting": "[2]; day 55 after immunization", "result": 1}, {"measurement": "Maximal disability score: Motor (grip)*", "setting": "[2]; day 55 after immunization", "result": 12}, {"measurement": "Maximal disability score: Other signs (shine hairs and loose skin)", "setting": "[2]; day 55 after immunization", "result": 3}, {"measurement": "Maximal disability score: Sensory* Light touch", "setting": "[2]; day 55 after immunization", "result": 8}, {"measurement": "Maximal disability score: Sensory* Pain", "setting": "[2]; day 55 after immunization", "result": 8}, {"measurement": "Maximal disability score: Spontaneous mobility", "setting": "[2]; day 55 after immunization", "result": 3}, {"measurement": "Maximal disability score: Tone*", "setting": "[2]; day 55 after immunization", "result": 12}, {"measurement": "Maximal disability score: Tremor", "setting": "[2]; day 55 after immunization", "result": 2}, {"measurement": "Maximal disability score: Vision (including pupillary reflex)", "setting": "[2]; day 55 after immunization", "result": 1}, {"measurement": "Total expanded disability scale", "setting": "[2]; day 55 after immunization", "result": 52}, {"measurement": "Maximal disability score: Alertness", "setting": "[2]; day 60 after immunization", "result": 2}, {"measurement": "Maximal disability score: Bladder function", "setting": "[2]; day 60 after immunization", "result": 1}, {"measurement": "Maximal disability score: Eye movements", "setting": "[2]; day 60 after immunization", "result": 1}, {"measurement": "Maximal disability score: Motor (grip)*", "setting": "[2]; day 60 after immunization", "result": 12}, {"measurement": "Maximal disability score: Other signs (shine hairs and loose skin)", "setting": "[2]; day 60 after immunization", "result": 2}, {"measurement": "Maximal disability score: Sensory* Light touch", "setting": "[2]; day 60 after immunization", "result": 8}, {"measurement": "Maximal disability score: Sensory* Pain", "setting": "[2]; day 60 after immunization", "result": 8}, {"measurement": "Maximal disability score: Spontaneous mobility", "setting": "[2]; day 60 after immunization", "result": 3}, {"measurement": "Maximal disability score: Tone*", "setting": "[2]; day 60 after immunization", "result": 12}, {"measurement": "Maximal disability score: Tremor", "setting": "[2]; day 60 after immunization", "result": 2}, {"measurement": "Maximal disability score: Vision (including pupillary reflex)", "setting": "[2]; day 60 after immunization", "result": 1}, {"measurement": "Total expanded disability scale", "setting": "[2]; day 60 after immunization", "result": 52}, {"measurement": "Maximal disability score: Alertness", "setting": "[2]; day 65 after immunization", "result": 1}, {"measurement": "Maximal disability score: Bladder function", "setting": "[2]; day 65 after immunization", "result": 0}, {"measurement": "Maximal disability score: Eye movements", "setting": "[2]; day 65 after immunization", "result": 0}, {"measurement": "Maximal disability score: Motor (grip)*", "setting": "[2]; day 65 after immunization", "result": 4}, {"measurement": "Maximal disability score: Other signs (shine hairs and loose skin)", "setting": "[2]; day 65 after immunization", "result": 0}, {"measurement": "Maximal disability score: Sensory* Light touch", "setting": "[2]; day 65 after immunization", "result": 0}, {"measurement": "Maximal disability score: Sensory* Pain", "setting": "[2]; day 65 after immunization", "result": 0}, {"measurement": "Maximal disability score: Spontaneous mobility", "setting": "[2]; day 65 after immunization", "result": 2}, {"measurement": "Maximal disability score: Tone*", "setting": "[2]; day 65 after immunization", "result": 8}, {"measurement": "Maximal disability score: Tremor", "setting": "[2]; day 65 after immunization", "result": 0}, {"measurement": "Maximal disability score: Vision (including pupillary reflex)", "setting": "[2]; day 65 after immunization", "result": 0}, {"measurement": "Total expanded disability scale", "setting": "[2]; day 65 after immunization", "result": 15}, {"measurement": "Maximal disability score: Alertness", "setting": "[2]; day 70 after immunization", "result": 1}, {"measurement": "Maximal disability score: Bladder function", "setting": "[2]; day 70 after immunization", "result": 0}, {"measurement": "Maximal disability score: Eye movements", "setting": "[2]; day 70 after immunization", "result": 1}, {"measurement": "Maximal disability score: Motor (grip)*", "setting": "[2]; day 70 after immunization", "result": 4}, {"measurement": "Maximal disability score: Other signs (shine hairs and loose skin)", "setting": "[2]; day 70 after immunization", "result": 0}, {"measurement": "Maximal disability score: Sensory* Light touch", "setting": "[2]; day 70 after immunization", "result": 0}, {"measurement": "Maximal disability score: Sensory* Pain", "setting": "[2]; day 70 after immunization", "result": 0}, {"measurement": "Maximal disability score: Spontaneous mobility", "setting": "[2]; day 70 after immunization", "result": 3}, {"measurement": "Maximal disability score: Tone*", "setting": "[2]; day 70 after immunization", "result": 4}, {"measurement": "Maximal disability score: Tremor", "setting": "[2]; day 70 after immunization", "result": 0}, {"measurement": "Maximal disability score: Vision (including pupillary reflex)", "setting": "[2]; day 70 after immunization", "result": 0}, {"measurement": "Total expanded disability scale", "setting": "[2]; day 70 after immunization", "result": 13}, {"measurement": "Maximal disability score: Alertness", "setting": "[2]; day 75 after immunization", "result": 1}, {"measurement": "Maximal disability score: Bladder function", "setting": "[2]; day 75 after immunization", "result": 1}, {"measurement": "Maximal disability score: Eye movements", "setting": "[2]; day 75 after immunization", "result": 0}, {"measurement": "Maximal disability score: Motor (grip)*", "setting": "[2]; day 75 after immunization", "result": 0}, {"measurement": "Maximal disability score: Other signs (shine hairs and loose skin)", "setting": "[2]; day 75 after immunization", "result": 0}, {"measurement": "Maximal disability score: Sensory* Light touch", "setting": "[2]; day 75 after immunization", "result": 0}, {"measurement": "Maximal disability score: Sensory* Pain", "setting": "[2]; day 75 after immunization", "result": 0}, {"measurement": "Maximal disability score: Spontaneous mobility", "setting": "[2]; day 75 after immunization", "result": 3}, {"measurement": "Maximal disability score: Tone*", "setting": "[2]; day 75 after immunization", "result": 4}, {"measurement": "Maximal disability score: Tremor", "setting": "[2]; day 75 after immunization", "result": 0}, {"measurement": "Maximal disability score: Vision (including pupillary reflex)", "setting": "[2]; day 75 after immunization", "result": 1}, {"measurement": "Total expanded disability scale", "setting": "[2]; day 75 after immunization", "result": 10}, {"measurement": "Maximal disability score: Alertness", "setting": "[2]; day 119 after immunization", "result": 1}, {"measurement": "Maximal disability score: Bladder function", "setting": "[2]; day 119 after immunization", "result": 0}, {"measurement": "Maximal disability score: Eye movements", "setting": "[2]; day 119 after immunization", "result": 1}, {"measurement": "Maximal disability score: Motor (grip)*", "setting": "[2]; day 119 after immunization", "result": 0}, {"measurement": "Maximal disability score: Other signs (shine hairs and loose skin)", "setting": "[2]; day 119 after immunization", "result": 0}, {"measurement": "Maximal disability score: Sensory* Light touch", "setting": "[2]; day 119 after immunization", "result": 4}, {"measurement": "Maximal disability score: Sensory* Pain", "setting": "[2]; day 119 after immunization", "result": 4}, {"measurement": "Maximal disability score: Spontaneous mobility", "setting": "[2]; day 119 after immunization", "result": 2}, {"measurement": "Maximal disability score: Tone*", "setting": "[2]; day 119 after immunization", "result": 4}, {"measurement": "Maximal disability score: Tremor", "setting": "[2]; day 119 after immunization", "result": 1}, {"measurement": "Maximal disability score: Vision (including pupillary reflex)", "setting": "[2]; day 119 after immunization", "result": 0}, {"measurement": "Total expanded disability scale", "setting": "[2]; day 119 after immunization", "result": 17}, {"measurement": "effectiveness of prolonged treatment on disease severity", "setting": "[3]; advanced disease, prolonged treatment from day 60 (FIG. 1C)", "result": "NBQX+GPE+anti-MAdCAM-1>NBQX+GPE>NBQX>GPE"}, {"measurement": "effect on advanced EAE (clinical symptoms)", "setting": "[3]; advanced disease, mAb three injections from day 51, neuroprotectors 7 days from day 60 (FIG. 1B)", "result": "only caused temporary remission"}, {"measurement": "effect on development of EAE (clinical symptoms)", "setting": "[3]; early disease, treatment from day 35 (FIG. 1A)", "result": "suppressed EAE, up to 27 days after suspension of treatment"}]}
